The results in this text go back to ChEMBL document CHEMBL1201862, “PubChem BioAssay data set” (2004).

Some test systems named below: DLD-1; DMS-114; HOP-18; KM-20L2; M19-MEL; RXF 631; XF498; DMS-273; SNB-78.
Holding throughout (assay): inhibition of tumour cell growth, NCI panel, 48 h

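Grown in 96-well plates, cells were treated for 48 hours with each compound at five concentrations. Insufficient inhibition: endpoint recorded as highest concentration tested. GI50 = concentration required for 50% inhibition of growth.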 Active and inactive are the calls of the source. No stated cut-off is given here; in the data, active = GI50 up to about 1.1 µM and inactive = higher. Where a SMILES comes first, the peptide text is derived from it. [ ]: non-standard residue; d: D form. 2Nal = N[CH](Cc1ccc2ccccc2c1)C(=O)O

As for `COc1ccc(C(=O)CC2=Nc3nnc(CCCCCCCc4nnc5n4C(=O)C(CC(=O)c4ccc(OC)cc4)=N5)n3C2=O)cc1`, the GI50 with DLD-1, with DMS-114, with HOP-18, in the experiment with KM-20L2, in the experiment on M19-MEL and with RXF 631 was > 100 µM (inactive) throughout. In the experiment with XF498, the GI50 is > 100 µM (inactive).
With `CCOC(OC1=C(C#N)CCCC1)C(CC)[Se]c1ccccc1` (stereo not given), the GI50 was 16.1 µM (inactive) in the experiment with DLD-1; 4.1 µM (inactive) in the experiment on DMS-114; 12 µM (inactive) in the experiment with DMS-273; 16.4 µM (inactive) in the experiment with HOP-18; 25.1 µM (inactive) with KM-20L2; 19.4 µM (inactive) with M19-MEL. The GI50 with RXF 631 was 11.3 µM (inactive); in the experiment on SNB-78, 33.8 µM (inactive); in the experiment on XF498 it was 20.4 µM (inactive).
`CCOC(=O)C(=O)CC1=Nc2ccccc2SC(c2cccc(C)c2)C1` (stereo not given): the GI50 with DLD-1 is 17.8 µM (inactive); in the experiment on DMS-114, 14.9 µM (inactive); with DMS-273, 19.6 µM (inactive); with KM-20L2, 17.9 µM (inactive); in the experiment on M19-MEL, 18.8 µM (inactive); in the experiment on RXF 631 it was 16 µM (inactive). In addition, the GI50 in the experiment on SNB-78 was 16 µM (inactive).
Regarding `Cc1ccc(S(=O)(=O)c2c(N)c3nc4ccccc4n3c3nc4ccccc4nc23)cc1`, the GI50 with DLD-1, in the experiment with DMS-114, in the experiment with DMS-273, in the experiment with KM-20L2, in the experiment on M19-MEL and in the experiment with RXF 631 was > 100 µM (inactive) throughout.
Take `O=C(O)c1ccc([C@@H]2C(=O)N(O)[C@@H]3C=CC[C@@H]32)cc1`: the GI50 with DLD-1, in the experiment with DMS-114, in the experiment with DMS-273, with M19-MEL, with RXF 631 and with SNB-78 was > 100 µM (inactive) throughout. For the same molecule, the GI50 with XF498 was > 100 µM (inactive).
As to `N#CC(C(=O)CCCC(=O)Nc1ccc(Cl)cc1Cl)c1ccccc1` (stereo not given), the GI50 in the experiment with DLD-1, in the experiment on DMS-114, in the experiment with DMS-273, in the experiment on HOP-18, with KM-20L2 and with M19-MEL was > 100 µM (inactive) each time. The GI50 in the experiment with RXF 631 and in the experiment with SNB-78 was > 100 µM (inactive) throughout.
As to `COc1cc(C2C(C(=O)Nc3ccc(Cl)c(Cl)c3)=C(C)NC(C)=C2C(=O)Nc2ccc(Cl)c(Cl)c2)ccc1O`, the GI50 in the experiment on DLD-1 was 10.6 µM (inactive); in the experiment with DMS-114 it was 6.49 µM (inactive); with KM-20L2, 19.8 µM (inactive); with M19-MEL, 14.5 µM (inactive); in the experiment with SNB-78, 14.9 µM (inactive); with XF498, 17.4 µM (inactive).
Take `COc1cc2c(cc1OC)C(C#N)N(C(=O)c1ccccc1)C=C2OC(=O)c1ccccc1` (stereo not given): the GI50 with DLD-1 was 29.6 µM (inactive); with DMS-114, 31 µM (inactive); in the experiment with DMS-273 it was 21.7 µM (inactive); in the experiment with HOP-18, 22 µM (inactive); in the experiment on KM-20L2, 52.4 µM (inactive); in the experiment with M19-MEL, 33.7 µM (inactive). Besides, the GI50 in the experiment with SNB-78 was 30 µM (inactive); in the experiment on XF498, 26.5 µM (inactive).
As for `CCOC(=O)C(Cc1ccccc1)NC(=O)c1ccc(/N=N/N(C)C)cc1` (stereo not given), the GI50 with DLD-1, in the experiment on DMS-114, in the experiment on DMS-273 and with M19-MEL was > 100 µM (inactive) each time.
As for `COC(=O)C1=CCC2c3[nH]c4ccccc4c3CCN2C1` (stereo not given), the GI50 in the experiment with DLD-1, in the experiment on DMS-114, with DMS-273, in the experiment on KM-20L2 and in the experiment on M19-MEL was > 354 µM (inactive) each time.
For the molecule `C/C=C(/CCCCNCCCC)[Si](C)(C)C`, the GI50 in the experiment on DLD-1 was 14.6 µM (inactive); in the experiment on DMS-114, 14.6 µM (inactive); with DMS-273, 18.4 µM (inactive); in the experiment with HOP-18, > 10 µM (inactive); with KM-20L2 it was 7.52 µM (inactive); in the experiment with M19-MEL, 16.8 µM (inactive). Moreover, the GI50 in the experiment with RXF 631 was 15 µM (inactive); in the experiment on SNB-78, 14.2 µM (inactive); in the experiment with XF498, 11.3 µM (inactive).
For the molecule `Nc1nc2c(N)cc(C(F)(F)F)cc2nc1-c1ccccc1`, the GI50 was > 100 µM (inactive) with DLD-1; 86.5 µM (inactive) in the experiment on DMS-114; > 100 µM (inactive) in the experiment with DMS-273; > 100 µM (inactive) in the experiment on HOP-18; > 100 µM (inactive) in the experiment on KM-20L2; > 100 µM (inactive) in the experiment with M19-MEL. Also, the GI50 is > 100 µM (inactive) with SNB-78 and 50.2 µM (inactive) with XF498.
In the case of `CC(C)(C)OC(=O)N[C@H]1CC(=O)c2ccccc2N(CC(=O)O)C1=O`, the GI50 in the experiment on DLD-1, in the experiment on DMS-114, in the experiment on DMS-273, in the experiment with HOP-18, in the experiment with KM-20L2 and in the experiment with M19-MEL was > 100 µM (inactive) throughout. The GI50 in the experiment with RXF 631 is > 100 µM (inactive).
For the molecule `COc1ccc2nccc(NCCCN3CCN(CCCNc4ccnc5ccc(OC)cc45)CC3)c2c1`, the GI50 was 0.843 µM (active) with DLD-1; 0.128 µM (active) in the experiment on DMS-114; 0.418 µM (active) in the experiment on DMS-273; 0.703 µM (active) in the experiment with KM-20L2; 0.652 µM (active) with M19-MEL; 0.873 µM (active) in the experiment on SNB-78. Also, the GI50 in the experiment with XF498 was 0.201 µM (active).
For `CC(=O)O[C@]12CCC[C@H]1C1(O)C(O)CCC[C@H]12` (stereo not given in full), the GI50 in the experiment on DMS-114, in the experiment with DMS-273, in the experiment on HOP-18, in the experiment with KM-20L2, with M19-MEL and in the experiment on SNB-78 was > 100 µM (inactive) each time. Also, the GI50 in the experiment on XF498 was > 100 µM (inactive).
`COC(CN1C=C(Sc2ccccc2)CC1)OC`: the GI50 in the experiment on DLD-1 is 29 µM (inactive); in the experiment with DMS-114, 23.2 µM (inactive); in the experiment on HOP-18 it was 59.3 µM (inactive); with KM-20L2, 38.8 µM (inactive); in the experiment with M19-MEL, 31.8 µM (inactive); in the experiment on SNB-78, 34.3 µM (inactive). Further, the GI50 with XF498 is 22.4 µM (inactive).
For the molecule `CCc1cccc(C(C)C)c1NC(=O)C(=O)C1C(=O)NC(=O)NC1=O`, the GI50 in the experiment with DLD-1, in the experiment on DMS-114, with HOP-18, in the experiment with KM-20L2, in the experiment with M19-MEL and in the experiment on XF498 was > 100 µM (inactive) each time.
Turning to `CCOC(OC1=C(C#N)CCC1)C(C)[Se]c1ccccc1` (stereo not given), the GI50 was 30.5 µM (inactive) in the experiment with DLD-1; 4.06 µM (inactive) in the experiment on DMS-114; 14.5 µM (inactive) in the experiment on DMS-273; 25.4 µM (inactive) with HOP-18; 45.4 µM (inactive) with KM-20L2; 14.8 µM (inactive) with M19-MEL. Besides, the figures for the GI50 in the experiment with RXF 631 and with SNB-78 were 11.1 µM (inactive) and 29.8 µM (inactive), respectively.
As for `CC1CC(=O)C(C(O)CC2CC(=O)N(c3ccccc3)C(=O)C2)C(C)C1` (stereo not given), the GI50 in the experiment on DLD-1, in the experiment on DMS-114, in the experiment with DMS-273, in the experiment with HOP-18, in the experiment on KM-20L2 and with M19-MEL was > 100 µM (inactive) in each case. For the same molecule, in the experiment with SNB-78, the GI50 was > 100 µM (inactive).
On to `CCCCCCCCOCC(CO)OCCCCCCCC` (stereo not given), for which the GI50 is 18 µM (inactive) with DLD-1; 21.2 µM (inactive) with DMS-114; 18.7 µM (inactive) with DMS-273; 11.7 µM (inactive) in the experiment on HOP-18; > 10 µM (inactive) with KM-20L2; 20 µM (inactive) in the experiment with M19-MEL. The GI50 in the experiment on RXF 631 is 17.7 µM (inactive).
On to `O=C(CSc1nc(-c2ccccc2)c(-c2ccccc2)[nH]1)NNC(=S)Nc1ccccc1`, for which the GI50 is 96.4 µM (inactive) in the experiment on DLD-1; 57 µM (inactive) in the experiment on DMS-114; 92.7 µM (inactive) with DMS-273; > 100 µM (inactive) in the experiment with KM-20L2; 91.6 µM (inactive) in the experiment on M19-MEL; > 100 µM (inactive) with SNB-78. In the experiment on XF498, the GI50 was 61.9 µM (inactive).
As to `CC(NC(=O)C(N)Cc1ccccc1)C(=O)NC(Cc1ccc(O)cc1)C(=O)NC(Cc1c[nH]c2ccccc12)C(=O)NC(CCCCN)C(=O)NC(C(=O)NC(C)C(=O)NC(Cc1ccc2ccccc2c1)C(N)=O)C(C)C` (stereo not given) (H-FAYWKVA[2Nal]-NH2; configuration not given here), the GI50 in the experiment on DLD-1 was 31.8 µM (inactive); in the experiment on DMS-114, 31.7 µM (inactive); in the experiment with DMS-273, 24.6 µM (inactive); with HOP-18, 23.9 µM (inactive); with KM-20L2, 27.1 µM (inactive); with M19-MEL, 27 µM (inactive). Also, the GI50 in the experiment on SNB-78 is 44.3 µM (inactive); with XF498 it was 21.4 µM (inactive).
